Assay results as given in PubChem BioAssay AID248 (DTP/NCI, 2004).
Several values for one entry are separate records, joined by “and”; a condition that tells them apart may be missing. Equal entries are not always repeated. Toxic doses and inconclusive results are not listed. No stated cut-off is given here; in the data, active means T/C of 150% or more; inactive means T/C below 125%.

Test system: L1210 leukemia ip in BDF1 mice, survival T/C
Assay: NCI In Vivo Anticancer Drug Screen. Data for tumor model L1210 Leukemia (intraperitoneal) in B6D2F1 (BDF1) mice
Details: endpoint: mean survival time, higher = longer survival
Summary of the method: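 Each compound was tested against a transplantable tumor grown in mice. The endpoint was survival, with treated animals benchmarked against vehicle controls as a simple ratio.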

[1] = dose: 100.0 mg/kg/injection, schedule: Q04DX003 (ip), vehicle: Klucel (hydroxypropylcellulose) (HPC)
[2] = dose: 100.0 mg/kg/injection, schedule: Q04DX003 (ip), vehicle: saline with Tween-80
[3] = dose: 200.0 mg/kg/injection, schedule: Q04DX003 (ip), vehicle: saline with Tween-80
[4] = dose: 400.0 mg/kg/injection, schedule: Q04DX003 (ip), vehicle: saline with Tween-80
[5] = dose: 100.0 mg/kg/injection, schedule: Q01DX001 (ip), vehicle: Klucel (hydroxypropylcellulose) (HPC)
[6] = dose: 200.0 mg/kg/injection, schedule: Q01DX001 (ip), vehicle: Klucel (hydroxypropylcellulose) (HPC)
[7] = dose: 400.0 mg/kg/injection, schedule: Q01DX001 (ip), vehicle: Klucel (hydroxypropylcellulose) (HPC)
[8] = dose: 10.0 mg/kg/injection, schedule: Q01DX001 (ip), vehicle: saline
[9] = dose: 100.0 mg/kg/injection, schedule: Q01DX009 (ip), vehicle: saline with Tween-80
[10] = dose: 200.0 mg/kg/injection, schedule: Q01DX009 (ip), vehicle: saline with Tween-80
[11] = dose: 400.0 mg/kg/injection, schedule: Q01DX009 (ip), vehicle: saline with Tween-80

Measured: T/C

NNC(=S)NC1CCCCC1
inactive: dose: 25.0 mg/kg/injection, schedule: Q04DX003 (ip), vehicle: Klucel (hydroxypropylcellulose) (HPC) 100 % of control | dose: 50.0 mg/kg/injection, schedule: Q04DX003 (ip), vehicle: Klucel (hydroxypropylcellulose) (HPC) 95 % of control | [1] 95 % of control and 90 % of control | [2] 96 % of control | [3] 96 % of control | [4] 96 % of control

COC(=O)N1C2C3C(C)=C(C)C2(C)C3(C)S1(=O)=O (stereo unspecified)
inactive: [5] 93 % of control | [1] 101 % of control | [6] 93 % of control | dose: 200.0 mg/kg/injection, schedule: Q04DX003 (ip), vehicle: Klucel (hydroxypropylcellulose) (HPC) 106 % of control | [7] 97 % of control

c1ccc(CCN2CCCC2)nc1
inactive: dose: 12.5 mg/kg/injection, schedule: Q04DX002 (ip), vehicle: saline with Tween-80 103 % of control | dose: 25.0 mg/kg/injection, schedule: Q04DX002 (ip), vehicle: saline with Tween-80 98 % of control

CC1(C)N=C(N)N=C(N)N1c1cccc(OCCOc2ccc(N)cc2)c1
inactive: [8] 94 % of control | dose: 20.0 mg/kg/injection, schedule: Q01DX001 (ip), vehicle: saline 96 % of control | dose: 40.0 mg/kg/injection, schedule: Q01DX001 (ip), vehicle: saline 102 % of control

O=C(COc1cc(Cl)c(Cl)cc1Cl)OC(=O)COc1cc(Cl)c(Cl)cc1Cl
inactive: dose: 100.0 mg/kg/injection, schedule: Q04DX002 (ip), vehicle: Klucel (hydroxypropylcellulose) (HPC) 107 % of control | dose: 200.0 mg/kg/injection, schedule: Q04DX002 (ip), vehicle: Klucel (hydroxypropylcellulose) (HPC) 96 % of control

OC(c1ccccc1)(c1ccccc1)C(c1ccccc1)c1ccccc1
inactive: dose: 100.0 mg/kg/injection, schedule: Q04DX003 (ip), vehicle: acetone 93 % of control | dose: 200.0 mg/kg/injection, schedule: Q04DX003 (ip), vehicle: acetone 97 % of control | dose: 400.0 mg/kg/injection, schedule: Q04DX003 (ip), vehicle: acetone 87 % of control

c1ccc2c(c1)ccc1ccc3cccc[n+]3c12
inactive: dose: 1.25 mg/kg/injection, schedule: Q01DX001 (ip), vehicle: saline 93 % of control | dose: 2.5 mg/kg/injection, schedule: Q01DX001 (ip), vehicle: saline 102 % of control | dose: 5.0 mg/kg/injection, schedule: Q01DX001 (ip), vehicle: saline 108 % of control | [8] 102 % of control

CN(C)C(=O)C(c1ccccc1)[P+](C)(c1ccccc1)c1ccccc1 (stereo unspecified)
inactive: dose: 75.0 mg/kg/injection, schedule: Q01DX001 (ip), vehicle: other 95 % of control

CCN(CC)Cc1cc(C(=N)N)ccc1O
inactive: dose: 56.0 mg/kg/injection, schedule: Q01DX Z (ip), vehicle: carboxymethylcellulose (CMC) 101 % of control | dose: 83.0 mg/kg/injection, schedule: Q01DX Z (ip), vehicle: carboxymethylcellulose (CMC) 95 % of control | dose: 125.0 mg/kg/injection, schedule: Q01DX Z (ip), vehicle: carboxymethylcellulose (CMC) 98 % of control | dose: 187.5 mg/kg/injection, schedule: Q01DX Z (ip), vehicle: carboxymethylcellulose (CMC) 102 % of control

Cc1ccc(N=Cc2ccc3c(c2)OCO3)cc1
inactive: [5] 100 % of control | dose: 100.0 mg/kg/injection, schedule: Q01DX009 (ip), vehicle: Klucel (hydroxypropylcellulose) (HPC) 91 % of control | [6] 104 % of control | dose: 200.0 mg/kg/injection, schedule: Q01DX009 (ip), vehicle: Klucel (hydroxypropylcellulose) (HPC) 105 % of control | [7] 118 % of control | dose: 400.0 mg/kg/injection, schedule: Q01DX009 (ip), vehicle: Klucel (hydroxypropylcellulose) (HPC) 98 % of control

CCCNC1=C(N2CC2)C(=O)C(NCCC)=C(N2CC2)C1=O
inactive: dose: 0.09 mg/kg/injection, schedule: Q04DX003 (ip), vehicle: saline 96 % of control and 109 % of control | dose: 0.18 mg/kg/injection, schedule: Q04DX003 (ip), vehicle: saline 97 % of control and 106 % of control | dose: 0.37 mg/kg/injection, schedule: Q01DX001 (ip), vehicle: saline 108 % of control | dose: 0.37 mg/kg/injection, schedule: Q04DX003 (ip), vehicle: saline 100 % of control and 103 % of control | dose: 0.39 mg/kg/injection, schedule: Q01DX009 (ip), vehicle: saline 95 % of control and 102 % of control | dose: 0.75 mg/kg/injection, schedule: Q01DX001 (ip), vehicle: saline 108 % of control | dose: 0.75 mg/kg/injection, schedule: Q04DX003 (ip), vehicle: saline 105 % of control and 108 % of control | dose: 0.78 mg/kg/injection, schedule: Q01DX009 (ip), vehicle: saline 107 % of control and 118 % of control | dose: 1.5 mg/kg/injection, schedule: Q01DX001 (ip), vehicle: saline 117 % of control | dose: 1.5 mg/kg/injection, schedule: Q04DX003 (ip), vehicle: saline 100 % of control | dose: 1.56 mg/kg/injection, schedule: Q01DX009 (ip), vehicle: saline 107 % of control and 116 % of control | dose: 1.56 mg/kg/injection, schedule: Q04DX003 (ip), vehicle: saline 103 % of control | dose: 3.0 mg/kg/injection, schedule: Q01DX001 (ip), vehicle: saline 118 % of control | dose: 3.0 mg/kg/injection, schedule: Q04DX003 (ip), vehicle: saline 118 % of control and 120 % of control | dose: 3.12 mg/kg/injection, schedule: Q04DX003 (ip), vehicle: saline 93 % of control | dose: 6.0 mg/kg/injection, schedule: Q01DX001 (ip), vehicle: saline 90 % of control | dose: 6.25 mg/kg/injection, schedule: Q04DX003 (ip), vehicle: saline 98 % of control | dose: 12.0 mg/kg/injection, schedule: Q01DX001 (ip), vehicle: saline 110 % of control | dose: 12.5 mg/kg/injection, schedule: Q04DX003 (ip), vehicle: saline 115 % of control | dose: 25.0 mg/kg/injection, schedule: Q04DX003 (ip), vehicle: saline 113 % of control

CCOC(=O)C(C#N)=C1CCN(Cc2ccccc2)CC1
inactive: dose: 100.0 mg/kg/injection, schedule: Q01DX001 (ip), vehicle: saline 96 % of control | dose: 200.0 mg/kg/injection, schedule: Q01DX001 (ip), vehicle: saline 99 % of control | dose: 400.0 mg/kg/injection, schedule: Q01DX001 (ip), vehicle: saline 105 % of control

C#CC1CC2C3CCC4=CC(=O)CCC4(C)C3CCC2(C)C1N(C)C (stereo unspecified)
inactive: dose: 50.0 mg/kg/injection, schedule: Q01DX001 (sc), vehicle: steriod suspending solution 98 % of control | dose: 100.0 mg/kg/injection, schedule: Q01DX001 (sc), vehicle: steriod suspending solution 104 % of control

CC12OC(=O)CC1CC(=O)O2 (stereo unspecified)
inactive: dose: 100.0 mg/kg/injection, schedule: Q01DX001 (ip), vehicle: saline sonified 101 % of control | dose: 100.0 mg/kg/injection, schedule: Q01DX009 (ip), vehicle: saline sonified 109 % of control | dose: 200.0 mg/kg/injection, schedule: Q01DX001 (ip), vehicle: saline sonified 95 % of control | dose: 200.0 mg/kg/injection, schedule: Q01DX009 (ip), vehicle: saline sonified 105 % of control | dose: 400.0 mg/kg/injection, schedule: Q01DX001 (ip), vehicle: saline sonified 92 % of control | dose: 400.0 mg/kg/injection, schedule: Q01DX009 (ip), vehicle: saline sonified 102 % of control

O=Cc1sc2cc[nH]c2c1O
inactive: [2] 100 % of control | [3] 97 % of control | [4] 94 % of control

CN(C)CC(=O)c1c[nH]c(=O)[nH]c1=O
inactive: [9] 112 % of control | [10] 94 % of control | [11] 102 % of control

Cc1ccc(S(=O)(=O)Nc2ccc(I)c(Cl)c2Cl)cc1
inactive: [9] 101 % of control | [10] 104 % of control | [11] 110 % of control
